The results in this text go back to patent publication US20240116998A1, “GLUCAGON-LIKE PEPTIDE-1 RECEPTOR ANTAGONISTS” (INDIANA UNIVERSITY RESEARCH AND TECHNOLOGY CORPORATION, priority 2021, published 2024).

≈ marks a conversion by molar mass, not a printed value. Non-standard residues stand in square brackets, D forms with d. Residues, ends and D or L forms follow the SMILES beside them. *: point of attachment. Palmitoyl = CCCCCCCCCCCCCCCC(=O)*; Aib = CC(C)(N)C(=O)O Where only a bound is given, the exact number is not on record here.

For orientation: solubility means the concentration that dissolves in the medium under given conditions.

This series can be described thus: Solubility of peptides in buffer. Type of series: physicochemical. The conditions noted are these: for Solubility 80 mM AmBicarb pH 7.7: Table 3, unit not given; for solubility: pH 7.4.

Take `CCCCCCCCCCCCCCCC(=O)NCCCC[C@H](NC(=O)[C@H](CO)NC(=O)[C@@H]1CCCN1C(=O)[C@@H]1CCCN1C(=O)[C@@H]1CCCN1C(=O)[C@H](C)NC(=O)CNC(=O)[C@H](CO)NC(=O)[C@H](CO)NC(=O)[C@@H]1CCCN1C(=O)CNC(=O)CNC(=O)[C@H](CCCNC(=N)N)NC(=O)[C@@H](NC(=O)[C@H](CC(C)C)NC(=O)[C@H](Cc1c[nH]c2ccccc12)NC(=O)[C@H](CCC(=O)O)NC(=O)[C@@H](NC(=O)[C@H](Cc1ccccc1)NC(=O)[C@H](CCC(=O)O)NC(=O)[C@H](CCCNC(=N)N)NC(=O)[C@@H](NC(=O)[C@H](C)NC(=O)[C@H](CCC(=O)O)NC(=O)[C@H](CCC(=O)O)NC(=O)[C@H](CCC(=O)O)NC(=O)[C@H](CC(C)C)NC(=O)[C@H](Cc1ccc(O)cc1)NC(=O)[C@H](CO)NC(=O)[C@H](CO)NC(=O)[C@@H](NC(=O)[C@@H](N)CC(=O)O)C(C)C)C(C)C)[C@@H](C)CC)C(C)C)C(N)=O` [SEQ ID NO: 72] (H-DVSSYLEEEAVREFIEWLVRGGPSSGAPPPSK(Palmitoyl)-NH2; N-terminus assumed): the “Solubility 80 mM AmBicarb pH 7.7” value is over 20.

Regarding `CCCCCCCCCCCCCCCC(=O)NCCCC[C@H](NC(=O)[C@H](CO)NC(=O)[C@@H]1CCCN1C(=O)[C@@H]1CCCN1C(=O)[C@@H]1CCCN1C(=O)[C@H](C)NC(=O)CNC(=O)[C@H](CO)NC(=O)[C@H](CO)NC(=O)[C@@H]1CCCN1C(=O)CNC(=O)CNC(=O)[C@H](CCCNC(=N)N)NC(=O)[C@@H](NC(=O)[C@H](CC(C)C)NC(=O)[C@H](Cc1c[nH]c2ccccc12)NC(=O)[C@H](C)NC(=O)[C@@H](NC(=O)[C@H](Cc1ccccc1)NC(=O)[C@H](CCC(=O)O)NC(=O)[C@H](CCCNC(=N)N)NC(=O)[C@@H](NC(=O)[C@H](C)NC(=O)[C@H](CCC(=O)O)NC(=O)[C@H](CCC(=O)O)NC(=O)[C@H](CCC(=O)O)NC(=O)[C@H](CC(C)C)NC(=O)[C@H](Cc1ccc(O)cc1)NC(=O)[C@H](CO)NC(=O)[C@H](CO)NC(=O)[C@@H](NC(=O)[C@@H](N)CC(=O)O)C(C)C)C(C)C)[C@@H](C)CC)C(C)C)C(N)=O` [SEQ ID NO: 71] (H-DVSSYLEEEAVREFIAWLVRGGPSSGAPPPSK(Palmitoyl)-NH2; N-terminus assumed), the “Solubility 80 mM AmBicarb pH 7.7” value is recorded as over 20. In the case of `CCCCCCCCCCCCCCCC(=O)NCCCC[C@H](NC(=O)[C@H](CO)NC(=O)[C@@H]1CCCN1C(=O)[C@@H]1CCCN1C(=O)[C@@H]1CCCN1C(=O)[C@H](C)NC(=O)CNC(=O)[C@H](CO)NC(=O)[C@H](CO)NC(=O)[C@@H]1CCCN1C(=O)CNC(=O)CNC(=O)[C@H](CCCCN)NC(=O)[C@@H](NC(=O)[C@H](CC(C)C)NC(=O)[C@H](Cc1c[nH]c2ccccc12)NC(=O)[C@H](C)NC(=O)[C@@H](NC(=O)[C@H](Cc1ccccc1)NC(=O)[C@H](CCC(=O)O)NC(=O)[C@H](CCCNC(=N)N)NC(=O)C(C)(C)NC(=O)[C@H](C)NC(=O)[C@H](CCC(N)=O)NC(=O)[C@H](CCC(=O)O)NC(=O)[C@H](CCC(=O)O)NC(=O)[C@H](CC(C)C)NC(=O)[C@H](Cc1ccc(O)cc1)NC(=O)[C@H](CO)NC(=O)[C@H](CO)NC(=O)[C@@H](NC(=O)[C@@H](N)CC(=O)O)C(C)C)[C@@H](C)CC)C(C)C)C(N)=O` [SEQ ID NO: 45] (H-DVSSYLEEQA[Aib]REFIAWLVKGGPSSGAPPPSK(Palmitoyl)-NH2; N-terminus assumed), the concentration in solution (solubility) was 400 µg/mL (≈ 110 µM). Still for that read-out and setting: as for `CCCCCCCCCCCCCCCC(=O)NCCCC[C@H](NC(=O)[C@H](CO)NC(=O)[C@@H]1CCCN1C(=O)[C@@H]1CCCN1C(=O)[C@@H]1CCCN1C(=O)[C@H](C)NC(=O)CNC(=O)[C@H](CO)NC(=O)[C@H](CO)NC(=O)[C@@H]1CCCN1C(=O)CNC(=O)CNC(=O)C(C)(C)NC(=O)[C@H](CCCCN)NC(=O)[C@H](CC(C)C)NC(=O)[C@H](Cc1c[nH]c2ccccc12)NC(=O)[C@H](C)NC(=O)[C@@H](NC(=O)[C@H](Cc1ccccc1)NC(=O)[C@H](CCC(=O)O)NC(=O)[C@H](CCCNC(=N)N)NC(=O)[C@@H](NC(=O)[C@H](C)NC(=O)[C@H](CCC(N)=O)NC(=O)[C@H](CCC(=O)O)NC(=O)[C@H](CCC(=O)O)NC(=O)[C@H](CC(C)C)NC(=O)[C@H](Cc1ccc(O)cc1)NC(=O)[C@H](CO)NC(=O)[C@H](CO)NC(=O)[C@@H](NC(=O)[C@@H](N)CC(=O)O)C(C)C)C(C)C)[C@@H](C)CC)C(N)=O` [SEQ ID NO: 43], the figure is 200 µg/mL (≈ 55.2 µM).

As to `CCCCCCCCCCCCCCCC(=O)NCCCC[C@H](NC(=O)[C@H](CO)NC(=O)[C@@H]1CCCN1C(=O)[C@@H]1CCCN1C(=O)[C@@H]1CCCN1C(=O)[C@H](C)NC(=O)CNC(=O)[C@H](CO)NC(=O)[C@H](CO)NC(=O)[C@@H]1CCCN1C(=O)CNC(=O)CNC(=O)[C@H](CCCCN)NC(=O)[C@@H](NC(=O)[C@H](CC(C)C)NC(=O)[C@H](Cc1c[nH]c2ccccc12)NC(=O)[C@H](C)NC(=O)[C@@H](NC(=O)[C@H](Cc1ccccc1)NC(=O)[C@H](CCC(=O)O)NC(=O)[C@H](CCCNC(=N)N)NC(=O)[C@@H](NC(=O)[C@H](C)NC(=O)[C@H](CCC(N)=O)NC(=O)C(C)(C)NC(=O)[C@H](CCC(=O)O)NC(=O)[C@H](CC(C)C)NC(=O)[C@H](Cc1ccc(O)cc1)NC(=O)[C@H](CO)NC(=O)[C@H](CO)NC(=O)[C@@H](NC(=O)[C@@H](N)CC(=O)O)C(C)C)C(C)C)[C@@H](C)CC)C(C)C)C(N)=O` [SEQ ID NO: 84] (H-DVSSYLE[Aib]QAVREFIAWLVKGGPSSGAPPPSK(Palmitoyl)-NH2; N-terminus assumed), the solubility came out at 200 µg/mL (≈ 55.6 µM). Same read-out and setting: for `CCCCCCCCCCCCCCCC(=O)NCCCC[C@H](NC(=O)[C@H](CO)NC(=O)[C@@H]1CCCN1C(=O)[C@@H]1CCCN1C(=O)[C@@H]1CCCN1C(=O)[C@H](C)NC(=O)CNC(=O)[C@H](CO)NC(=O)[C@H](CO)NC(=O)[C@@H]1CCCN1C(=O)CNC(=O)CNC(=O)[C@H](CCCCN)NC(=O)C(C)(C)NC(=O)[C@H](CC(C)C)NC(=O)[C@H](Cc1c[nH]c2ccccc12)NC(=O)[C@H](C)NC(=O)[C@@H](NC(=O)[C@H](Cc1ccccc1)NC(=O)[C@H](CCC(=O)O)NC(=O)[C@H](CCCNC(=N)N)NC(=O)[C@@H](NC(=O)[C@H](C)NC(=O)[C@H](CCC(N)=O)NC(=O)[C@H](CCC(=O)O)NC(=O)[C@H](CCC(=O)O)NC(=O)[C@H](CC(C)C)NC(=O)[C@H](Cc1ccc(O)cc1)NC(=O)[C@H](CO)NC(=O)[C@H](CO)NC(=O)[C@@H](NC(=O)[C@@H](N)CC(=O)O)C(C)C)C(C)C)[C@@H](C)CC)C(N)=O` [SEQ ID NO: 81] (H-DVSSYLEEQAVREFIAWL[Aib]KGGPSSGAPPPSK(Palmitoyl)-NH2; N-terminus assumed) the value was 1600 µg/mL (≈ 441 µM); for `CCCCCCCCCCCCCCCC(=O)NCCCC[C@H](NC(=O)[C@H](CO)NC(=O)[C@@H]1CCCN1C(=O)[C@@H]1CCCN1C(=O)[C@@H]1CCCN1C(=O)[C@H](C)NC(=O)CNC(=O)[C@H](CO)NC(=O)[C@H](CO)NC(=O)[C@@H]1CCCN1C(=O)CNC(=O)CNC(=O)[C@H](CCCCN)NC(=O)[C@@H](NC(=O)C(C)(C)NC(=O)[C@H](Cc1c[nH]c2ccccc12)NC(=O)[C@H](C)NC(=O)[C@@H](NC(=O)[C@H](Cc1ccccc1)NC(=O)[C@H](CCC(=O)O)NC(=O)[C@H](CCCNC(=N)N)NC(=O)[C@@H](NC(=O)[C@H](C)NC(=O)[C@H](CCC(N)=O)NC(=O)[C@H](CCC(=O)O)NC(=O)[C@H](CCC(=O)O)NC(=O)[C@H](CC(C)C)NC(=O)[C@H](Cc1ccc(O)cc1)NC(=O)[C@H](CO)NC(=O)[C@H](CO)NC(=O)[C@@H](NC(=O)[C@@H](N)CC(=O)O)C(C)C)C(C)C)[C@@H](C)CC)C(C)C)C(N)=O` [SEQ ID NO: 44] (H-DVSSYLEEQAVREFIAW[Aib]VKGGPSSGAPPPSK(Palmitoyl)-NH2; N-terminus assumed), 100 µg/mL (≈ 27.7 µM); for `CCCCCCCCCCCCCCCC(=O)NCCCC[C@H](NC(=O)[C@H](CO)NC(=O)[C@@H]1CCCN1C(=O)[C@@H]1CCCN1C(=O)[C@@H]1CCCN1C(=O)[C@H](C)NC(=O)CNC(=O)[C@H](CO)NC(=O)[C@H](CO)NC(=O)[C@@H]1CCCN1C(=O)CNC(=O)CNC(=O)C(C)(C)NC(=O)[C@@H](NC(=O)[C@H](CCCCN)NC(=O)[C@H](Cc1c[nH]c2ccccc12)NC(=O)[C@H](C)NC(=O)[C@@H](NC(=O)[C@H](Cc1ccccc1)NC(=O)[C@H](CCC(=O)O)NC(=O)[C@H](CCCNC(=N)N)NC(=O)[C@@H](NC(=O)[C@H](C)NC(=O)[C@H](CCC(N)=O)NC(=O)[C@H](CCC(=O)O)NC(=O)[C@H](CCC(=O)O)NC(=O)[C@H](CC(C)C)NC(=O)[C@H](Cc1ccc(O)cc1)NC(=O)[C@H](CO)NC(=O)[C@H](CO)NC(=O)[C@@H](NC(=O)[C@@H](N)CC(=O)O)C(C)C)C(C)C)[C@@H](C)CC)C(C)C)C(N)=O` [SEQ ID NO: 82], 100 µg/mL (≈ 27.7 µM).

Regarding `CCCCCCCCCCCCCCCC(=O)NCCCC[C@H](NC(=O)[C@H](CO)NC(=O)[C@@H]1CCCN1C(=O)[C@@H]1CCCN1C(=O)[C@@H]1CCCN1C(=O)[C@H](C)NC(=O)CNC(=O)[C@H](CO)NC(=O)[C@H](CO)NC(=O)[C@@H]1CCCN1C(=O)CNC(=O)CNC(=O)[C@H](CCCCN)NC(=O)[C@@H](NC(=O)[C@H](CC(C)C)NC(=O)[C@H](Cc1c[nH]c2ccccc12)NC(=O)[C@H](C)NC(=O)[C@@H](NC(=O)[C@H](Cc1ccccc1)NC(=O)[C@H](CCC(=O)O)NC(=O)[C@H](CCCNC(=N)N)NC(=O)[C@@H](NC(=O)C(C)(C)NC(=O)[C@H](CCC(N)=O)NC(=O)[C@H](CCC(=O)O)NC(=O)[C@H](CCC(=O)O)NC(=O)[C@H](CC(C)C)NC(=O)[C@H](Cc1ccc(O)cc1)NC(=O)[C@H](CO)NC(=O)[C@H](CO)NC(=O)[C@@H](NC(=O)[C@@H](N)CC(=O)O)C(C)C)C(C)C)[C@@H](C)CC)C(C)C)C(N)=O` [SEQ ID NO: 46] (H-DVSSYLEEQ[Aib]VREFIAWLVKGGPSSGAPPPSK(Palmitoyl)-NH2; N-terminus assumed), the solubility was found to be 700 µg/mL (≈ 192 µM).
